{
  "source": "ChEMBL document CHEMBL3784999",
  "about": "“Investigation of 4-amino-5-alkynylpyrimidine-2(1H)-ones as anti-mycobacterial agents” (Bioorg Med Chem, 2016)",
  "key": {"[1]": {"system": "Mycobacterium tuberculosis", "assay": "Antimycobacterial activity against Mycobacterium tuberculosis H37Ra assessed as inhibition of mycobacterial replication at 200 ug/ml after 6 days by microplate Alamar blue assay", "format": "functional", "settings": "144 h"}, "[2]": {"system": "Mycobacterium tuberculosis", "assay": "Antimycobacterial activity against Mycobacterium tuberculosis H37Ra assessed as inhibition of mycobacterial replication at 50 ug/ml after 6 days by microplate Alamar blue assay", "format": "functional", "settings": "144 h"}, "[3]": {"assay": "Cytotoxicity against African green monkey Vero cells assessed as cell viability after 3 days by XTT assay", "format": "cell-based", "settings": "chlorocebus sabaeus"}, "[4]": {"system": "Mycobacterium tuberculosis", "assay": "Antimycobacterial activity against Mycobacterium tuberculosis H37Ra assessed as inhibition of mycobacterial replication after 6 days by microplate Alamar blue assay", "format": "functional", "settings": "144 h"}, "Mycobacterium avium": {"system": "Mycobacterium avium", "assay": "Antimycobacterial activity against Mycobacterium avium ATCC 25291 assessed as inhibition of mycobacterial replication after 6 days by microplate Alamar blue assay", "format": "functional, Mycobacterium avium subsp. avium ATCC 25291", "settings": "ATCC 25291, 144 h"}, "[5]": {"system": "Mycobacterium tuberculosis", "assay": "Antimycobacterial activity against Mycobacterium tuberculosis H37Ra infected in BALB/c mouse assessed as reduction of bacterial load in liver at 1 mg/kg, po administered for 2 weeks started on day 4 post bacterial infection measured 3 days post last dose", "format": "functional, organism-based"}, "[6]": {"system": "Mycobacterium tuberculosis", "assay": "Antimycobacterial activity against Mycobacterium tuberculosis H37Ra infected in BALB/c mouse assessed as reduction of bacterial load in spleen at 1 mg/kg, po administered for 2 weeks started on day 4 post bacterial infection measured 3 days post last dose", "format": "functional, organism-based"}, "[7]": {"system": "Mycobacterium tuberculosis", "assay": "Antimycobacterial activity against Mycobacterium tuberculosis H37Ra infected in BALB/c mouse assessed as reduction of bacterial load in lung at 1 mg/kg, po administered for 2 weeks started on day 4 post bacterial infection measured 3 days post last dose", "format": "functional, organism-based"}, "[8]": {"system": "Mycobacterium tuberculosis", "assay": "Antimycobacterial activity against Mycobacterium tuberculosis H37Ra assessed as inhibition of mycobacterial replication at 0.05 ug/ml after 6 days by microplate Alamar blue assay in absence of isoniazid", "format": "functional", "settings": "144 h"}},
  "note": "Active and inactive are the calls of the source. The calls are words filed in the database; no cut-off is given here.",
  "data": [
    {"smiles": "CCCCCCCCC#Cc1c[nH]c(=O)nc1N", "values": [
      {"measurement": "inhibition at 200 µg/mL", "setting": "[1]", "result": 100, "unit": "%"},
      {"measurement": "inhibition at 50 µg/mL", "setting": "[2]", "result": 50, "unit": "%"},
      {"measurement": "CC50 at 72 h", "setting": "[3]", "result": "> 200", "unit": "µg/mL"},
      {"measurement": "MIC50", "setting": "[4]", "result": 50, "unit": "µg/mL"}
    ]},
    {"smiles": "CC[C@H]1OC(=O)[C@H](C)[C@@H](O[C@H]2C[C@@](C)(OC)[C@@H](O)[C@H](C)O2)[C@H](C)[C@@H](O[C@@H]2O[C@H](C)C[C@H](N(C)C)[C@H]2O)[C@](C)(OC)C[C@@H](C)C(=O)[C@H](C)[C@@H](O)[C@]1(C)O", "note": "[CLARITHROMYCIN]", "values": [
      {"measurement": "MIC90", "setting": "Mycobacterium avium", "result": 2, "unit": "µg/mL"}
    ]},
    {"smiles": "CCCCCCCCCCCCC#Cc1c[nH]c(=O)nc1N", "values": [
      {"measurement": "CC50 at 72 h", "setting": "[3]", "result": "> 200", "unit": "µg/mL"}
    ]},
    {"smiles": "NNC(=O)c1ccncc1", "note": "[ISONIAZID]", "values": [
      {"measurement": "Activity", "setting": "[5]", "result": "inactive"},
      {"measurement": "Activity", "setting": "[6]", "result": "inactive"},
      {"measurement": "Activity", "setting": "[7]", "result": "inactive"},
      {"measurement": "inhibition at 0.05 µg/mL", "setting": "[8]", "result": 10, "unit": "%"}
    ]}
  ]
}
